What was measured:
HSP70b mRNA [1] = experiment: Cellular expression of HSP-70 mRNA in Hela cells (real-time PCR); assay type: cell-based; conditions: fold induction of HSP-70b mRNA relative to the vehicle treated control; 4 hours; normalized to 18S rRNA
Protocol: (§1) Experiments set forth in this section were conducted to determine whether the compounds of the present invention are able to elevate the expression of HSP-70 gene in cells.
(§2) Hela cell-line or primary mixed neurons derived from neonatal rat cerebellum were employed. Induction was carried out for the indicated dose(s) for 4 hours duration and total RNA was isolated. Expression of HSP70b mRNA along-with expression of 18S rRNA was monitored by real-time PCR. HSP70b mRNA expression was normalized relative to the expression of 18S rRNA.
(§3) The results for test compounds were expressed as fold induction of HSP-70 mRNA relative to vehicle treated control and are as shown in Table 2 & 3.

TNF-α mRNA = experiment: Inhibition of LPS-induced TNF-α expression in PMA differentiated THP-1 cells; assay type: cell-based, Human; conditions: LPS (1 ug/ml) and compound for 4 hours, LPS alone as 100%
Protocol: The purpose of the present study was to determine the inhibition of lipopolysaccharide(LPS)-induced TNF-α expression in phorbol merstyl ester (PMA) differentiated THP-1 cells.
Human monocytic leukaemia cell line (THP-1), differentiated into macrophage-like cells by PMA treatment was employed. Differentiated cells were treated with either LPS (1 ug/ml) alone or with LPS (1 ug/ml) and compound for 4 hours. Total RNA was isolated and expression of TNF-αmRNA along-with expression of 18S rRNA was monitored by real-time PCR. TNF-α mRNA expression was normalized relative to the expression of 18S rRNA Considering TNF-α expression for cells treated with LPS alone as 100%; the results for test compounds were expressed as % inhibition of TNF-α expression and are as shown in Table 4

HSP70b mRNA [2] = experiment: Cellular expression of HSP-70 mRNA in primary mixed neurons (real-time PCR); assay type: cell-based; conditions: fold induction of HSP70b mRNA relative to vehicle treated control; primary mixed neurons from neonatal rat cerebellum; 4 hours; normalized to 18S rRNA
Protocol: as §1, §2, §3

How did the “HSP Induction in Hela cells” value (HSP70b mRNA [1]) turn out when CC1(C)CN(Cc2ccccc2)C(c2ccccn2)C(=Cc2ccccn2)C1=O (stereo not shown) [Compound 29, 1-Benzyl-5,5-dimethyl-3-[1-pyridin-2-yl-methylidene]-2,3,5,6-tetrahydro-1H-[2,2′]bipyridinyl-4-one] was run?
Its value is “(+++) (193-1536 fold)”.

For CC1(C)CN(Cc2ccccc2)C(c2ccccn2)C(=Cc2cccc(N3CCCCC3)n2)C1=O (stereo not shown) [Compound 34, 1-Benzyl-5,5-dimethyl-3-[1-(3,4,5,6-tetrahydro-2H-[1,2′]bipyridinyl-6′-yl)-methylidene]-2,3,5,6-tetrahydro-1H-[2,2′]bipyridinyl-4-one], which “HSP Induction in Hela cells” value (HSP70b mRNA [1]) is on record?
Its value is “(++) (25-192 fold)”.

Which “HSP Induction in Hela cells” value (HSP70b mRNA [1]) does the source give for COc1ccc(CC2N(C(=O)Oc3ccccc3)CC(=Cc3ccccn3)C(=O)C2(C)C)cc1 (stereo not shown) [Compound 14, 2-(4-Methoxy-benzyl)-3,3-dimethyl-4-oxo-5-[1-pyridin-2-yl-methylidene]-piperidine-1-carboxylic acid phenyl ester] here?
Its value is “(+++) (193-1536 fold)”.

How did the “HSP Induction in Hela cells” value (HSP70b mRNA [1]) turn out when CC1(C)CN(Cc2ccccc2)C(c2ccccc2)C(=Cc2cccc(N3CCOCC3)n2)C1=O (stereo not shown) [Compound 31, 1-Benzyl-5,5-dimethyl-3-[1-(6-morpholin-4-yl-pyridin-2-yl)-methylidene]-2-phenyl-piperidin-4-one] was run?
Its value is “(++) (25-192 fold)”.

Which “TNF-alpha Inhibition” value (TNF-α mRNA) does the source give for CC1(C)CN(Cc2ccccc2)CC(=Cc2cccc(N3CCOCC3)n2)C1=O [Compound 20, 1-Benzyl-3,3-dimethyl-5-[1-(6-morpholin-4-yl-pyridin-2-yl)-methylidene]-piperidin-4-one] here?
Its value is “(++) (41-60%)”.

What about the “HSP Induction in Hela cells” value (HSP70b mRNA [1]) of the same molecule?
The value was “(+++) (193-1536 fold)”.

Which “HSP Induction in Hela cells” value (HSP70b mRNA [1]) does the source give for CC1(C)CN(C(=O)Oc2ccccc2)CC(=Cc2cccc(N3CCCCC3)n2)C1=O [Compound 35, 3,3-Dimethyl-4-oxo-5-[1-(3,4,5,6-tetrahydro-2H-[1,2′]bipyridinyl-6′-yl)-methylidene]-piperidine-1-carboxylic acid phenyl ester] here?
The value was “(++++) (>1536 fold)”.

With CC1(C)CN(Cc2ccccc2)C(c2cccs2)C(=Cc2cccc(N3CCOCC3)n2)C1=O (stereo not shown) [Compound 33, 1-Benzyl-5,5-dimethyl-3-[1-(6-morpholin-4-yl-pyridin-2-yl)-methylidene]-2-thiophen-2-yl-piperidin-4-one] as the molecule, how does the “HSP Induction in Hela cells” value (HSP70b mRNA [1]) read?
The value was “(+++) (193-1536 fold)”.

Which “HSP Induction in Hela cells” value (HSP70b mRNA [1]) does the source give for CC1(C)CN(C(=O)Oc2ccccc2)CC(=Cc2cccc(N3CCOCC3)n2)C1=O [Compound 36, 3,3-Dimethyl-5-[1-(6-morpholin-4-yl-pyridin-2-yl)-methylidene]-4-oxo-piperidine-1-carboxylic acid phenyl ester] here?
The value was “(++++) (>1536 fold)”.

With COc1ccc(CC2N(C(=O)OCC(C)C)CC(=Cc3ccccn3)C(=O)C2(C)C)cc1 (stereo not shown) [Compound 15, 2-(4-Methoxy-benzyl)-3,3-dimethyl-4-oxo-5-[1-pyridin-2-yl-methylidene]-piperidine-1-carboxylic acid isobutyl ester] as the molecule, how does the “HSP Induction in Hela cells” value (HSP70b mRNA [1]) read?
Its value is “(++++) (>1536 fold)”.

With COc1ccc(CC2N(C(=S)Nc3ccccc3)CC(=Cc3ccccn3)C(=O)C2(C)C)cc1 (stereo not shown) [Compound 60, 2-(4-Methoxy-benzyl)-3,3-dimethyl-4-oxo-5-[1-pyridin-2-yl-methylidene]-piperidine-1-carbothioic acid phenylamide] as the molecule, how does the “HSP Induction in mixed neuron” value (HSP70b mRNA [2]) read?
Its value is “(++++) (>16 fold)”.

And the “TNF-alpha Inhibition” value (TNF-α mRNA)?
Its value is “(+++) (61-80%)”.

For CC1(C)CN(CCc2cccs2)CC(=Cc2ccccn2)C1=O [Compound 79, 3,3-Dimethyl-5-[1-pyridin-2-yl-methylidene]-1-(2-thiophen-2-yl-ethyl)-piperidin-4-one], which “HSP Induction in mixed neuron” value (HSP70b mRNA [2]) is on record?
The value was “(+++) (9-16 fold)”.

And the “TNF-alpha Inhibition” value (TNF-α mRNA)?
Its value is “(++++) (>80%)”.

Which “HSP Induction in Hela cells” value (HSP70b mRNA [1]) does the source give for CC1(C)CN(Cc2ccccc2)C(c2ccccc2)C(=Cc2ccccn2)C1=O (stereo not shown) [Compound 25, 1-Benzyl-5,5-dimethyl-2-phenyl-3-[1-pyridin-2-yl-methylidene]-piperidin-4-one] here?
The value was “(++++) (>1536 fold)”.

Which results are given for CN1CC(C)(C)C(=O)C(=Cc2ccccn2)C1c1ccccc1 (stereo not shown) [Compound 85, 1,5,5-Trimethyl-2-phenyl-3-[1-pyridin-2-yl-methylidene]-piperidin-4-one]?
HSP Induction in mixed neuron (HSP70b mRNA [2]): (++) (5-8 fold); TNF-alpha Inhibition (TNF-α mRNA): (+) (21-40%)

For CC1(C)CN(Cc2ccccc2)CC(=Cc2cccc(N3CCCCC3)n2)C1=O [Compound 23, 1-Benzyl-3,3-dimethyl-5-[1-(3,4,5,6-tetrahydro-2H-[1,2′]bipyridinyl-6′-yl)-methylidene]-piperidin-4-one], which “HSP Induction in Hela cells” value (HSP70b mRNA [1]) is on record?
Its value is “(+++) (193-1536 fold)”.

For CSc1ccc(C2C(=Cc3ccccn3)C(=O)C(C)(C)CN2Cc2ccccc2)cc1 (stereo not shown) [Compound 46, 1-Benzyl-5,5-dimethyl-2-(4-methylsulfanyl-phenyl)-3-[1-pyridin-2-yl-methylidene]-piperidin-4-one], which “HSP Induction in mixed neuron” value (HSP70b mRNA [2]) is on record?
The value was “(+++) (9-16 fold)”.

And the “TNF-alpha Inhibition” value (TNF-α mRNA)?
The value was “(++) (41-60%)”.

How did the “HSP Induction in Hela cells” value (HSP70b mRNA [1]) turn out when CCOC(=O)N1CC(=Cc2ccccn2)C(=O)C(C)(C)C1Cc1ccc(OC)cc1 (stereo not shown) [Compound 13, 2-(4-Methoxy-benzyl)-3,3-dimethyl-4-oxo-5-[1-pyridin-2-yl-methylidene]-piperidine-1-carboxylic acid ethyl ester] was run?
Its value is “(+++) (193-1536 fold)”.

For CC1(C)CN(Cc2ccccc2)C(c2ccccn2)C(=Cc2cccc(N3CCOCC3)n2)C1=O (stereo not shown) [Compound 28, 1-Benzyl-5,5-dimethyl-3-[1-(6-morpholin-4-yl-pyridin-2-yl)-methylidene]-2,3,5,6-tetrahydro-1H-[2,2′]bipyridinyl-4-one], which “HSP Induction in Hela cells” value (HSP70b mRNA [1]) is on record?
The value was “(++++) (>1536 fold)”.

Which results are given for COc1ccc(CC2N(C(=O)C(C)(C)C)CC(=Cc3ccccn3)C(=O)C2(C)C)cc1 (stereo not shown) [Compound 16, 1-(2,2-Dimethyl-propionyl)-2-(4-methoxy-benzyl)-3,3-dimethyl-5-[1-pyridin-2-yl-methylidene]-piperidin-4-one]?
TNF-alpha Inhibition (TNF-α mRNA): (++++) (>80%); HSP Induction in Hela cells (HSP70b mRNA [1]): (++++) (>1536 fold)

How did the “HSP Induction in mixed neuron” value (HSP70b mRNA [2]) turn out when CC1(C)CN(Cc2ccccc2)C(c2ccc(C(F)(F)F)cc2)C(=Cc2cccc(N3CCOCC3)n2)C1=O (stereo not shown) [Compound 43, 1-Benzyl-5,5-dimethyl-3-[1-(6-morpholin-4-yl-pyridin-2-yl)-methylidene]-2-(4-trifluoromethyl-phenyl)-piperidin-4-one] was run?
Its value is “(+++) (9-16 fold)”.

And the “TNF-alpha Inhibition” value (TNF-α mRNA)?
The value was “(++) (41-60%)”.

For O=C1C(=Cc2cccc(N3CCOCC3)n2)C(=O)N(Cc2ccccc2)CC1c1ccccc1 (stereo not shown) [Compound 103, 1-Benzyl-3-[1-(6-morpholin-4-yl-pyridin-2-yl)-methylidene]-5-phenyl-piperidine-2,4-dione], which “HSP Induction in mixed neuron” value (HSP70b mRNA [2]) is on record?
Its value is “(+) (2-4 fold)”.

What about the “TNF-alpha Inhibition” value (TNF-α mRNA) of the same molecule?
The value was “(+) (21-40%)”.

Which results are given for CC1(C)CN(Cc2ccccc2)C(c2ccc(S(C)(=O)=O)cc2)C(=Cc2ccccn2)C1=O (stereo not shown) [Compound 229, 1-Benzyl-2-(4-methanesulfonyl-phenyl)-5,5-dimethyl-3-[1-pyridin-2-yl-methylidene]-piperidin-4-one]?
HSP Induction in mixed neuron (HSP70b mRNA [2]): (++) (5-8 fold); TNF-alpha Inhibition (TNF-α mRNA): (++++) (>80%)

Which “HSP Induction in Hela cells” value (HSP70b mRNA [1]) does the source give for CC1(C)CN(Cc2ccccc2)CC(=Cc2nc3ccccc3c(=O)[nH]2)C1=O [Compound 37, 2-[1-Benzyl-5,5-dimethyl-4-oxo-piperidin-3-ylidenemethyl]-3H-quinazolin-4-one] here?
The value was “(++++) (>1536 fold)”.

For COc1ccc(CN2CC(C)(C)C(=O)C(=Cc3ccccn3)C2c2ccccc2)cc1 (stereo not shown) [Compound 47, 1-(4-Methoxy-benzyl)-5,5-dimethyl-2-phenyl-3-[1-pyridin-2-yl-methylidene]-piperidin-4-one], which “HSP Induction in mixed neuron” value (HSP70b mRNA [2]) is on record?
The value was “(++++) (>16 fold)”.

And the “TNF-alpha Inhibition” value (TNF-α mRNA)?
Its value is “(+++) (61-80%)”.

With COc1ccc(CC2N(C(=O)Nc3c(C)cccc3C)CC(=Cc3ccccn3)C(=O)C2(C)C)cc1 (stereo not shown) [Compound 17, 2-(4-Methoxy-benzyl)-3,3-dimethyl-4-oxo-5-[1-pyridin-2-yl-methylidene]-piperidine-1-carboxylic acid (2,6-dimethyl-phenyl)-amde] as the molecule, how does the “HSP Induction in Hela cells” value (HSP70b mRNA [1]) read?
The value was “(++) (25-192 fold)”.

Which results are given for Cc1cc(N2CC(C)(C)C(=O)C(=Cc3cccc(N4CCOCC4)n3)C2c2ccccc2)no1 (stereo not shown) [Compound 65, 5,5-Dimethyl-1-(5-methyl-isoxazol-3-yl)-3-[1-(6-morpholin-4-yl-pyridin-2-yl)-methylidene]-2-phenyl-piperidin-4-one]?
HSP Induction in mixed neuron (HSP70b mRNA [2]): (+++) (9-16 fold); TNF-alpha Inhibition (TNF-α mRNA): (+++) (61-80%)

Which “HSP Induction in Hela cells” value (HSP70b mRNA [1]) does the source give for CSc1ccc(C=C2C(=O)C(C)(C)CN(Cc3ccccc3)C2c2ccccc2)cc1 (stereo not shown) [Compound 30, 1-Benzyl-5,5-dimethyl-3-[1-(4-methylsulfanyl-phenyl)-methylidene]-2-phenyl-piperidin-4-one] here?
Its value is “(+) (4-24 fold)”.

Source: patent US20100190824A1, “Novel Substituted Piperidones as HSP Inducers” (priority 2007, published 2010)
